From ChEMBL document CHEMBL1201862, “PubChem BioAssay data set” (2004)
The source made the active and inactive calls.

Assays:
Kallikrein-7 = Kallikrein-7 (Homo sapiens, UniProt P49862); assay: Fluorescence Intensity-based biochemical primary high throughput dose response assay to identify activators of kallikrein-7 (K7) zymogen.
[1] = viability inhibitors of stage V gametocytes – luminescence, dose response (AID 1117278); type: functional, cell-based;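 also: gametocytes exposed to compound for 24 hours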
[2] = viability loss in human Jurkat cells – cell-based, luminescence, cytotoxicity control for P. falciparum gametocyte viability project, dose response (AID 1117277); type: functional;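 also: potency reflects loss of cellular ATP meaning fewer viable cells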
Streptococcus = assay: GAS UMAA2166 growth inhibition – luminescence, BacTiterGlo, counter-screen for streptokinase expression inhibitor project, dose response (AID 1915); type: functional, organism-based;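 also: potency for reduction of bacterial viability or growth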
[3] = system: Streptococcus sp. 'group A'; assay: Streptococcus pyogenes SK(-)GAS viability under kanamycin – luminescence, BacTiterGlo, confirmation, counter-screen for streptokinase expression inhibitor project, dose response (AID 1900); type: functional, organism-based
Streptokinase A = molecular target: T1, Streptokinase A (Streptococcus pyogenes serotype M1, UniProt P10520); assay: viability-normalized secreted streptokinase activity reduction – plasminogen activation absorbance, OD405, dose response (AID 1914); type: functional, Streptococcus pyogenes M1 GAS;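 also: secreted streptokinase activity via plasminogen activation per viability signal from cell pellet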
T1 sequence (P10520 whole entry): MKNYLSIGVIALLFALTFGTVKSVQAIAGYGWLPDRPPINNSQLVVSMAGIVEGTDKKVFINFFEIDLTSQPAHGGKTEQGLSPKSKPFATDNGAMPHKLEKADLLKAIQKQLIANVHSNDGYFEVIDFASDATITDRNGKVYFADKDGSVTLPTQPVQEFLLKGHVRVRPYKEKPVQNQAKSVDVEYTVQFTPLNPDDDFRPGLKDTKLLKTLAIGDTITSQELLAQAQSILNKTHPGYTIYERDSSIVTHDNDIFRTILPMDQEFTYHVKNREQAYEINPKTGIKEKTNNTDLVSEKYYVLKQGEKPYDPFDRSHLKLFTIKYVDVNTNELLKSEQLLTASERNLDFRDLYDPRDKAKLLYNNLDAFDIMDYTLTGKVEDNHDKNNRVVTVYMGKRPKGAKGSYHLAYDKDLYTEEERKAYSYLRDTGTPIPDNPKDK

[4] = reduced cellular PGC1a acetyl-lysine signal – cell-based, cherry-picked samples, dose response (AID 720514); type: functional;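 also: potency may reflect raised or lowered acetylation signal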
[5] = OVCAR8 cell viability loss – plate reader, dry powder samples, PAX8 project, dose response (AID 743197); type: functional, cell-based; settings: OVCAR-8
Paired box protein Pax-8 = Paired box protein Pax-8 (Homo sapiens, UniProt Q06710); assay: PAX8 transcriptional activity inhibition in RMG-I – RMG-I cells, luciferase, cherry-pick, dose response (AID 687027); type: functional, cell-based;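 also: luciferase reporter driven by Pax8 target thyroperoxidase promoter measured by SteadyGlo luminescence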
[6] = OVCAR-3 cell viability loss – plate reader, dry powder samples, PAX8 inhibitor project, dose response (AID 743044); type: functional, cell-based
[7] = growth inhibition of yeast DHODH-expressing 3D7 parasites – SYBR Green, dry powder samples, dose response (AID 1159570); type: functional, cell-based;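 also: parasite growth measured after 72 hours of compound exposure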
[8] = blockers of bursicon-stimulated LGR2 cAMP reporter – cell-based, HEK293, CRE-luciferase reporter, cherry pick, set 2, dose response (AID 743343); type: functional;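 also: transfected cells were stimulated with diluted bursicon conditioned medium after compound addition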
[9] = Dd2 parasite growth inhibition in erythrocytes – SYBR Green, dry powder samples, set 9, dose response (AID 1159568); type: functional, cell-based
[10] = toxicity to human HepG2 hepatoma cells – cell-based, plate reader, dry powder samples, cytotoxicity control, dose response (AID 1159569); type: functional;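 also: inhibitor potency with signal falling toward the positive control level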
[11] = Dd2 malaria parasite growth inhibition potency – SYBR Green, dry powder samples, dose response (AID 1159566); type: functional, cell-based;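 also: potency for growth inhibition with lower SYBR green DNA signal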
[12] = growth inhibition of PfATP4-mutant resistant parasites – NITD609-resistant line, SYBR Green, dry powder, dose response (AID 1159571); type: functional, cell-based;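 also: parasites synchronized at ring stage by sorbitol before testing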
[13] = blockade of melanocortin 4 receptor signaling – cell-based, plate reader, cherry pick, counter-screen for LGR2 antagonist project, dose response (AID 743444); type: functional;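 also: transfected HEK 293 cells stimulated with alpha-MSH peptide; potency of inhibitors of the alpha-MSH evoked signal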
[14] = A549 cell cytotoxicity, dose response, cytotoxicity control, plate reader, cherry-pick, antagonist series (AID 743412); type: functional, cell-based
[15] = P. falciparum Dd2 growth inhibitors, dose response, SYBR Green, cherry-picked samples (AID 1159567); type: functional, cell-based
Caspase-3 = molecular target: T2, Caspase-3 (Homo sapiens, UniProt P42574); type: functional;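 also: Dose-response selectivity test against caspase-3 for candidate inhibitors of sentrin-specific proteases (SENPs)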
T2 sequence (P42574 whole entry): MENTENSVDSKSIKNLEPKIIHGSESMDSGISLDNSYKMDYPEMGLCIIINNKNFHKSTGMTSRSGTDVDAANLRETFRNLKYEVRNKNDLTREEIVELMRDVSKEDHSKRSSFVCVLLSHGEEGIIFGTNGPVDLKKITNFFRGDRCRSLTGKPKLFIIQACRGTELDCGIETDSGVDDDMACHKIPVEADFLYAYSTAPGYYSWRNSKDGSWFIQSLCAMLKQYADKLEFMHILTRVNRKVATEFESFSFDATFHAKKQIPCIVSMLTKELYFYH

[16] = molecular target: T3, Oxysterols receptor LXR-beta (Homo sapiens, UniProt P55055); type: functional, cell-based;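 also: Cell-based luminescence dose-response assay of agonist activity at LXR, run as a confirmatory counterscreen to a daf-12 agonist screen; HEK293 cells with Gal4-LXR fusion and GAL4-driven luciferase reporter; agonist potency from rising luciferase signal of a Gal4-LXR reporter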
T3 sequence (P55055 whole entry): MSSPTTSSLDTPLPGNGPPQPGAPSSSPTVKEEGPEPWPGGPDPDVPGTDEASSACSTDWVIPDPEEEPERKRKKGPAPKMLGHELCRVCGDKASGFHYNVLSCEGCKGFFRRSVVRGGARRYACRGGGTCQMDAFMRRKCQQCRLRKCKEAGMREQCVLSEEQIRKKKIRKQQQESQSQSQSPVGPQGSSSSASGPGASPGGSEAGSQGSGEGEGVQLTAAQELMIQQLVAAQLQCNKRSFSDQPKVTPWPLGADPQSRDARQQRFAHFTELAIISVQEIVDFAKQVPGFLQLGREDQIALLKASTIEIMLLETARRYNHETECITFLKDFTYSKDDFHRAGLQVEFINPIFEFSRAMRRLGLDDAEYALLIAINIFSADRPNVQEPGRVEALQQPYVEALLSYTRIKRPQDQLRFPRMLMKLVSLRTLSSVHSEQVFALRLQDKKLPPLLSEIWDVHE

[17] = molecular target: T4, Sentrin-specific protease 7 (Homo sapiens, UniProt Q9BQF6); type: functional;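 also: Luminescence-based dose-response confirmation of ultra-high-throughput screening hits, measuring inhibition of SENP7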
T4 sequence (Q9BQF6 whole entry): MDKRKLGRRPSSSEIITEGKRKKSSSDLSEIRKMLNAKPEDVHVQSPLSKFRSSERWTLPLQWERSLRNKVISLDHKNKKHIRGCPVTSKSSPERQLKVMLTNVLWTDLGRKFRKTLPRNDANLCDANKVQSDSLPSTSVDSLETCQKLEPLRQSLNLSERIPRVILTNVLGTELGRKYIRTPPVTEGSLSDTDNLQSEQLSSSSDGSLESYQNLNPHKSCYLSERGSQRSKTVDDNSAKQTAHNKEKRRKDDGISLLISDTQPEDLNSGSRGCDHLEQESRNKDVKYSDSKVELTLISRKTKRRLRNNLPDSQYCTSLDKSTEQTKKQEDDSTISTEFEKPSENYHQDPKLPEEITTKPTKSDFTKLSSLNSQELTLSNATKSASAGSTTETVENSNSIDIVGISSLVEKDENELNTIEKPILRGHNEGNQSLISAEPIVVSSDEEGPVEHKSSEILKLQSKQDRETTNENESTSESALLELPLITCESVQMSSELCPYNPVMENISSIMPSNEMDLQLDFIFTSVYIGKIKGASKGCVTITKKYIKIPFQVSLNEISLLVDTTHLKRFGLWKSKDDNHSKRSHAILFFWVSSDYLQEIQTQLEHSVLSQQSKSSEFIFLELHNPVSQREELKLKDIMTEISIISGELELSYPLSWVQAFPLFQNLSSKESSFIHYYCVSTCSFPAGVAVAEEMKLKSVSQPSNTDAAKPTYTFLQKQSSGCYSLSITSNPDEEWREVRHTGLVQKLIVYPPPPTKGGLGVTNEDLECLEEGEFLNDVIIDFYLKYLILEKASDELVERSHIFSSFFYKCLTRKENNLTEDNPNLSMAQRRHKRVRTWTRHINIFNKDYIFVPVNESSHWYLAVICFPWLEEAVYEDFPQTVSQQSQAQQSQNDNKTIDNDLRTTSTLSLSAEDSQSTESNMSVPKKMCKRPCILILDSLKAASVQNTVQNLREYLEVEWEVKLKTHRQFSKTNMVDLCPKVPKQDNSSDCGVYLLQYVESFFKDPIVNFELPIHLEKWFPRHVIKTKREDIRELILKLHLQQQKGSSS

[18] = molecular target: T5, Sentrin-specific protease 6 (Homo sapiens, UniProt Q9GZR1); type: functional;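 also: Luminescence-based dose-response confirmatory assay of SENP6 inhibition, following up an ultra-high-throughput screen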
T5 sequence (Q9GZR1 whole entry): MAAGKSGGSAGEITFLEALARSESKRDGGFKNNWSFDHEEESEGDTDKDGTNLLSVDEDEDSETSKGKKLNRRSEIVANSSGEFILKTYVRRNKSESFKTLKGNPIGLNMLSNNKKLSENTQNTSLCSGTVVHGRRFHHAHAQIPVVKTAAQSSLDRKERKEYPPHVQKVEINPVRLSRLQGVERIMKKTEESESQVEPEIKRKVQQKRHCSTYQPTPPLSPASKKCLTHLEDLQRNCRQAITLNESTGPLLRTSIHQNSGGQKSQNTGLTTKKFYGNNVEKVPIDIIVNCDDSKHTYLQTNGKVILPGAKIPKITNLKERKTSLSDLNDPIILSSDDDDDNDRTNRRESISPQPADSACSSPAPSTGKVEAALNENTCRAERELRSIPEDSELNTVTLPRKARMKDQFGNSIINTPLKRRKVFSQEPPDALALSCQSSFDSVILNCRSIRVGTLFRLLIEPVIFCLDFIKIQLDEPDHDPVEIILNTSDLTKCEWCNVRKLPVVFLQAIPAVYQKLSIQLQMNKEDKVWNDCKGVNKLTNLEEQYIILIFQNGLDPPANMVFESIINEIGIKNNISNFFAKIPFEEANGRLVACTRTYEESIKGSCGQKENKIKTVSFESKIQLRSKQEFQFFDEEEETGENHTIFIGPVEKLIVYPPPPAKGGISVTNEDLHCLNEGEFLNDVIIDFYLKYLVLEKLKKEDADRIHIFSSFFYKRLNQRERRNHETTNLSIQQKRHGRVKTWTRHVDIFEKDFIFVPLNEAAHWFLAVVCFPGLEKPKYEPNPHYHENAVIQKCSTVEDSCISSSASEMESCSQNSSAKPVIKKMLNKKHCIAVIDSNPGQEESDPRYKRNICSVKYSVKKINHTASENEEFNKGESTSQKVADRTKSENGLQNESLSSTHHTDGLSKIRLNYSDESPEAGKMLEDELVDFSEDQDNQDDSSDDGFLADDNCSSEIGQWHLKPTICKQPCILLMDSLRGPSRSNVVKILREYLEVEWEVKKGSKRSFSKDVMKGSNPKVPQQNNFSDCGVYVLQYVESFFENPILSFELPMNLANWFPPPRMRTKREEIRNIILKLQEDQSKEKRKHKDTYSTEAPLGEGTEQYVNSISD

[19] = molecular target: T6, Sentrin-specific protease 8 (Homo sapiens, UniProt Q96LD8); type: functional;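 also: luminescence read-out of SENP8 inhibition, dose-response confirmation following an ultra-high-throughput screen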
T6 sequence (Q96LD8 whole entry): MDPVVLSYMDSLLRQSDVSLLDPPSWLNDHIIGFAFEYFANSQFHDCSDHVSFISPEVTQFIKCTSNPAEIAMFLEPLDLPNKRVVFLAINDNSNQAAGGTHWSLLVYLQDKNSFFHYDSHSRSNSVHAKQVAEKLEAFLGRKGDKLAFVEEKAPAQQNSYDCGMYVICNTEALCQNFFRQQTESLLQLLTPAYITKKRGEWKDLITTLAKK

[20] = molecular target: G-protein coupled receptor 183 (Homo sapiens, UniProt P32249); assay: SAR confirmation of small molecule antagonists of the EBI2 receptor via a luminescent beta-arrestin assa.; type: functional
Sequence of G-protein coupled receptor 183 (P32249 whole entry): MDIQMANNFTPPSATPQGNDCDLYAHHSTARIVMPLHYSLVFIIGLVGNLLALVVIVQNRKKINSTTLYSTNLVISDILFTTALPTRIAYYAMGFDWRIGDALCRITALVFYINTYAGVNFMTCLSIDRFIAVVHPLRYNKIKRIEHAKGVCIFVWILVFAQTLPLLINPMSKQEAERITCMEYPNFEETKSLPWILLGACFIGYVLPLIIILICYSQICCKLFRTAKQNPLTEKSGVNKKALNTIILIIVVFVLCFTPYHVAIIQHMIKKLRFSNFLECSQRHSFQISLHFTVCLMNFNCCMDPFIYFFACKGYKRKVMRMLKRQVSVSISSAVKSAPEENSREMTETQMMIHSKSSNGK

Sequence of Kallikrein-7 (P49862 whole entry): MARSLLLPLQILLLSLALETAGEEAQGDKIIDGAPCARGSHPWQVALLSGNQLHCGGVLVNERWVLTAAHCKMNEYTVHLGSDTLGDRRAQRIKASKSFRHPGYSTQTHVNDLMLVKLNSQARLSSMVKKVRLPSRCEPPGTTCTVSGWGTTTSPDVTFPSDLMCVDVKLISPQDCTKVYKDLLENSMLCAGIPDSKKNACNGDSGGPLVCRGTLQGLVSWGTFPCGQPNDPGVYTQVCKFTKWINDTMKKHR
Sequence of Paired box protein Pax-8 (Q06710 whole entry): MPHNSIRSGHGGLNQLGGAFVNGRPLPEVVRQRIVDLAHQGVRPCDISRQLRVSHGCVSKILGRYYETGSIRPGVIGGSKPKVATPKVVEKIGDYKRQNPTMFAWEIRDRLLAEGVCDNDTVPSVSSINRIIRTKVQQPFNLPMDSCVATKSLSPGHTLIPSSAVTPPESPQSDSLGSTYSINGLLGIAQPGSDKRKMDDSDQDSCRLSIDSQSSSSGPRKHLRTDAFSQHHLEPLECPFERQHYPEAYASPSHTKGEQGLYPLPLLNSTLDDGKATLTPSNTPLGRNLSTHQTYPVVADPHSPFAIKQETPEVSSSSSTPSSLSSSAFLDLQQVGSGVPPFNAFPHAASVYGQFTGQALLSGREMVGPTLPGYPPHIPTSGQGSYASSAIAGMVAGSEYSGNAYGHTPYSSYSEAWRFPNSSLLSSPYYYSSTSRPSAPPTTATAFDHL

CN(C)CCNS(=O)(=O)c1ccc2c3c(cccc13)C(=O)N2
EC50 (Kallikrein-7): 1.83 µM (active)

CCOC(=O)N1CCC2(CC1)CC(=O)c1c(ccc3oc(C(=O)O)c(C)c13)O2
EC50 (Kallikrein-7): 97.5 µM (inactive)

COc1cc(CCC(C)=O)ccc1OC(=O)c1c(F)cccc1Cl
IC50 [1]: > 109 µM (inactive)
IC50 [2]: > 83.2 µM (inactive)

Cc1ccc(C)n1-c1sc2c(c1C#N)CCC(C)C2 (configuration not stated)
EC50 (Streptococcus): > 150 µM (not active)
EC50 [3]: 7.14 µM (active)
IC50 [1]: > 109 µM (inactive)
IC50 [2]: > 83.3 µM (inactive)
EC50 (Streptokinase A): 14.6 µM (active)

O=C1Nc2ccccc2N=C(c2ccccc2)C1N(Cc1ccc(F)cc1)C(=O)c1cccnc1 (configuration not stated)
AC50 [4]: 36.7 µM (active)

Cc1ccc(S(=O)(=O)N(C)C[C@@H]2Oc3cc(C#Cc4ccncc4)ccc3S(=O)(=O)N([C@H](C)CO)C[C@H]2C)cc1
AC50 [4]: 3.54 µM (active)
AC50 [5]: > 70 µM (inactive)
AC50 (Paired box protein Pax-8): 3.3 µM (active)
AC50 [6]: 3.13 µM (active)

C[C@H](CO)N1C[C@H](C)[C@H](CN(C)S(=O)(=O)c2ccc(C(F)(F)F)cc2)OCc2ccccc2-c2c(n(C)c3ccccc23)C1=O
AC50 [7]: 0.155 µM (active)
AC50 [8]: 27.3 µM (active)
AC50 [9]: 0.293 µM (active)
AC50 [10]: 25.7 µM (active)
AC50 [11]: 0.117 µM (active)
AC50 [12]: 0.152 µM (active)
AC50 [13]: 28.9 µM (active)
AC50 [14]: 19.8 µM (active)
AC50 [15]: 0.427 µM (active)

CCOC(=O)/C(=N\Nc1ncnc2ccccc12)c1ccc(C)cc1
IC50 (Caspase-3): 32.9 µM (active)
EC50 [16]: > 67.6 µM (inactive)
EC50 (cells): > 67.6 µM (inactive)
IC50 [17]: 6.78 µM (active)
IC50 [18]: 11.7 µM (active)
IC50 [19]: 13.4 µM (active)

C[C@@H]1CN([C@H](C)CO)C(=O)c2cccc(NC(=O)c3ccc(-c4nccs4)cc3)c2O[C@@H]1CN(C)C(=O)Nc1ccc(C(F)(F)F)cc1
AC50 [9]: 0.886 µM (active)

O=C(/C=C/c1ccc(F)cc1)N1CCN(S(=O)(=O)c2ccccc2Br)CC1
IC50 [20]: 0.00801 µM (active)

Cc1ccc(C(=O)N2CCN(C(=O)/C=C/c3ccc(Br)cc3)CC2)cc1
IC50 [20]: 0.00102 µM (active)
